Measurements reported in patent US7611863B2, “Selective staining of biomembranes using voltage-sensitive dyes” (Max-Planck-Gesellschaft zur Foerderung der Wissenschaften …, priority 2004, dated 2009).

Tests used:
[1] = Enzyme induced staining of giant vesicles; format: biochemical; details: giant POPC vesicles, 9.8 μM dye phosphate, PLAP added
Method: Enzyme induced staining of giant vesicles. Giant POPC vesicles were prepared by electroswelling^27,28. 5 μl of a 2 mM lipid solution in diethylether/methanol (9:1, v/v) were applied to a pair of planar electrodes of indium tin oxide coated with 70 nm of silica. After evaporation of the solvent under reduced pressure (0.1 mbar), 2 ml of 300 mM sucrose were added and giant vesicle formation was promoted by applying AC voltage to the electrodes. After formation was complete, vesicles were transferred to 35 mm polypropylene cell culture dishes (BD Biosciences Europe, Le Pont de Claix, France) and diluted in the same buffer. They were used the same day.
For enzyme kinetic measurements at room temperature, 400 μl of the giant vesicle stock solution were transferred to a culture dish containing 3,600 μl buffer (20 mM Tris, 100 mM NaCl, 120 mM Glucose, pH 8.1). […] The fluorescence of a selected giant vesicle with a diameter of 10 to 40 μm was observed using a microscope (Axioskop, Zeiss, Oberkochen, Germany) equipped with a 100 water immersion objective and a b/w CCD camera (Sony ICX 285 Chip, Theta System, Gröbenzell, Germany). […] The fluorescence was detected through the dichroic mirror and a long pass filter (510 nm). […] Images were recorded every 10 or 20 seconds before and after addition of the phosphatase. […]

human erythrocytes = experiment: Enzyme induced staining of red blood cells; format: cell-based; details: 9.8 μM, PLAP added
Method: Enzyme induced staining of red blood cells. Human erythrocytes were prepared according to a slightly modified standard procedure^29. 4 ml of blood of MJH were sucked into a tube coated with EDTA (Vacutainer 367,861, Becton Dickinson, Meylan, France) and centrifuged for 10 min at 1600 g. The pellet (˜1 ml) was washed three times by resuspension and centrifugation for 10 min at 1600 g using 15 ml of a 300 mOsm Tris buffer (50 mM Tris, 110 mM NaCl, pH 7.4). Finally, the pellet was diluted with an equal volume of the same buffer additionally containing 1 mM CaCl2.
The staining experiments with erythrocytes were similar to those with giant vesicles. […]
Di-4-ASPP phosphate was added to human erythrocytes attached to a culture dish to a concentration of 9.8 μM. Membrane fluorescence was measured in the same setup as with giant vesicles. Fluorescence was weaker than with giant vesicles, which we attribute to fluorescence quenching by hemoglobin and the smaller size of the erythrocytes. […]
Plots of the intensity of a row of pixels cutting through the image of an erythrocyte at its maximum diameter are shown in B. The normalized maximum brightness minus the background signal versus time is shown in C. The ratio of final and initial fluorescence was F∞/F0=11-25 with an average of 15. These values are similar to the fluorescence enhancement on giant vesicles. […]

ratio of fluorescence intensities F∞/F0 [1]: 9-13
Structure (SMILES): CCCCN(CCCC)c1ccc(/C=C/c2cc[n+](CCCOP(=O)([O-])O)cc2)cc1 [Di-4-ASPP phosphate]
ratio of final and initial fluorescence F∞/F0, average (human erythrocytes): 15
ratio of final and initial fluorescence F∞/F0, range (human erythrocytes): 11-25
